# Reference: ChEMBL document CHEMBL3351699, “Diarylthiazole: an antimycobacterial scaffold potentially targeting PrrB-PrrA two-component system” (J Med Chem, 2014)
# pIC50: −log10 of the molar value.
# Key:
# [1] = tested on: Mycobacterium tuberculosis; assay: Antimicrobial activity against Mycobacterium tuberculosis H37Rv ATCC 27294 assessed as growth inhibition after 5 days by microdilution method; type: functional; details: H37Rv ATCC 27294, 120 h
# [2] = tested on: Mycobacterium tuberculosis; assay: Antimicrobial activity against clinical isolate Mycobacterium tuberculosis Erdman assessed as growth inhibition after 7 days by turbidometry; type: functional; details: 168 h
# [3] = tested on: Mycobacterium tuberculosis; assay: Antimicrobial activity against clinical isolate Mycobacterium tuberculosis H37Rv ATCC 27294 assessed as growth inhibition after 7 days by turbidometry; type: functional; details: H37Rv ATCC 27294, 168 h
# [4] = tested on: Mycobacterium tuberculosis; assay: Antimicrobial activity against clinical isolate Mycobacterium tuberculosis DKU97A assessed as growth inhibition after 7 days by turbidometry; type: functional; details: 168 h
# [5] = tested on: Mycobacterium tuberculosis; assay: Antimicrobial activity against clinical isolate Mycobacterium tuberculosis DKU220 assessed as growth inhibition after 7 days by turbidometry; type: functional; details: DKU220, 168 h
# [6] = tested on: Mycobacterium tuberculosis; assay: Antimicrobial activity against clinical isolate Mycobacterium tuberculosis ATCC35811 assessed as growth inhibition after 7 days by turbidometry; type: functional; details: ATCC35811, 168 h
# [7] = tested on: Mycobacterium tuberculosis; assay: Antimicrobial activity against clinical isolate Mycobacterium tuberculosis Harlingen assessed as growth inhibition after 7 days by turbidometry; type: functional; details: 168 h
# [8] = tested on: Mycobacterium tuberculosis; assay: Antimicrobial activity against clinical isolate Mycobacterium tuberculosis ATCC25618 assessed as growth inhibition after 7 days by turbidometry; type: functional; details: ATCC25618, 168 h
# [9] = tested on: Mycobacterium tuberculosis; assay: Antimicrobial activity against clinical isolate Mycobacterium tuberculosis DKU76 assessed as growth inhibition after 7 days by turbidometry; type: functional; details: DKU76, 168 h
# [10] = tested on: Mycobacterium tuberculosis; assay: Antimicrobial activity against clinical isolate Mycobacterium tuberculosis DKU211 assessed as growth inhibition after 7 days by turbidometry; type: functional; details: DKU211, 168 h
# [11] = tested on: Mycobacterium tuberculosis; assay: Antimicrobial activity against clinical isolate Mycobacterium tuberculosis Beijing assessed as growth inhibition after 7 days by turbidometry; type: functional; details: 168 h
# [12] = tested on: Mycobacterium tuberculosis; assay: Antimicrobial activity against clinical isolate Mycobacterium tuberculosis JAL assessed as growth inhibition after 7 days by turbidometry; type: functional; details: 168 h
# [13] = molecular target: T1, Enoyl-[acyl-carrier-protein] reductase [NADH] (Mycobacterium tuberculosis, UniProt P9WGR1); assay: Inhibition of Mycobacterium tuberculosis InhA using NADH and dodecyl coA substrate by LC-MS/MS method
# T1 sequence (P9WGR1 whole entry): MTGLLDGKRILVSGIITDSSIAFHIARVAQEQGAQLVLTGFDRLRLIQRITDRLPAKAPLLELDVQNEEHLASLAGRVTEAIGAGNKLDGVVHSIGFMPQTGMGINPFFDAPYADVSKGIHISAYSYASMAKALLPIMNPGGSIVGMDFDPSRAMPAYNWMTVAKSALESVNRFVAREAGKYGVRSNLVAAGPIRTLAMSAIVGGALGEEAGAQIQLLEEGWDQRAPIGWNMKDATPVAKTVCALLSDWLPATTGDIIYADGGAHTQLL
# [14] = Solubility of the compound; type: physicochemical
# [15] = tested on: Mycobacterium tuberculosis; assay: Ratio of MBC for Mycobacterium tuberculosis H37Rv ATCC 27294 to MIC for Mycobacterium tuberculosis H37Rv ATCC 27294; type: functional
# [16] = tested on: Mycobacterium tuberculosis; assay: Bactericidal activity against Mycobacterium tuberculosis H37Rv ATCC 27294 after 5 days by microdilution method; type: functional; details: H37Rv ATCC 27294, 120 h
# [17] = Unbound fraction in mouse plasma; type: ADME, cell-free
# [18] = Intrinsic clearance in mouse liver microsomes; type: ADME; details: read-out: CLH
# [19] = Intrinsic clearance in human liver microsomes; type: ADME; details: read-out: CLH
smiles,measurement,setting,value
CCCc1cc(-c2csc(-c3ccnc(CCC)c3)n2)ccn1,MIC80,[1],0.25 µg/mL
CCCc1cc(-c2nc(-c3ccc(F)cc3)cs2)ccn1,MIC80,[1],1 µg/mL
CO[C@H]1/C=C/O[C@@]2(C)Oc3c(C)c(O)c4c(O)c(c(/C=N/N5CCN(C)CC5)c(O)c4c3C2=O)NC(=O)/C(C)=C\C=C\[C@H](C)[C@H](O)[C@@H](C)[C@@H](O)[C@@H](C)[C@H](OC(C)=O)[C@@H]1C [RIFAMPIN],MIC80,[2],0.003 µg/mL
same,MIC80,[3],0.007 µg/mL
same,MIC80,[4],0.003 µg/mL
same,MIC80,[5],0.003 µg/mL
same,MIC80,[6],0.003 µg/mL
same,MIC80,[7],0.003 µg/mL
same,MIC80,[8],0.003 µg/mL
same,MIC80,[9],0.003 µg/mL
same,MIC80,[10],0.003 µg/mL
same,MIC80,[11],0.003 µg/mL
same,MIC80,[12],0.003 µg/mL
same,pIC50,[13],7.52
CCCc1cc(-c2nc(-c3cccnc3)cs2)ccn1,MIC80,[1],1.6 µg/mL
CCCc1cc(-c2nc(-c3ccnc(OC)c3)cs2)ccn1,MIC80,[1],0.2 µg/mL
CCCc1cc(-c2nc(-c3cncnc3)cs2)ccn1,MIC80,[1],4 µg/mL
CCCc1cc(-c2nc(-c3ccnc(O[C@H]4CCOC4)c3)cs2)ccn1,MIC80,[1],2 µg/mL
CCCc1cc(-c2nc(-c3ccc(OC)cc3)cs2)ccn1,MIC80,[1],1 µg/mL
CCCc1cc(-c2nc(-c3ccc(Cl)cc3)c(C(=O)OCC)s2)ccn1,MIC80,[1],> 32 µg/mL
CCCc1cc(-c2nc(-c3ccccc3OC)cs2)ccn1,MIC80,[1],1 µg/mL
CCCc1cc(-c2nc(-c3ccc(C(F)(F)F)cc3)cs2)ccn1,MIC80,[1],1 µg/mL
CCCc1cc(-c2nc(-c3cccc(OC)c3)cs2)ccn1,MIC80,[2],0.25 µg/mL
same,MIC80,[3],0.25 µg/mL
same,MIC80,[4],0.5 µg/mL
same,MIC80,[5],1 µg/mL
same,MIC80,[1],0.5 µg/mL
same,MIC80,[6],0.5 µg/mL
same,MIC80,[7],0.13 µg/mL
same,MIC80,[8],0.25 µg/mL
same,MIC80,[9],1 µg/mL
same,MIC80,[10],1 µg/mL
same,MIC80,[11],0.13 µg/mL
same,MIC80,[12],0.5 µg/mL
CCCc1cc(-c2nc(-c3ccc(C)cc3)cs2)ccn1 [FATOSTATIN],solubility,[14],0.4 µM
same,MIC80,[1],1 µg/mL
CCCc1cc(-c2nc(-c3ccnc(OCCN(C)C)c3)cs2)ccn1,MIC80,[1],8 µg/mL
CCCc1cc(-c2nc(-c3ccc(OCCN4CCCC4)cc3)cs2)ccn1,Ratio,[15],1
same,solubility,[14],155 µM
same,MIC80,[1],4.9 µg/mL
same,MBC,[16],4.9 µg/mL
NNC(=O)c1ccncc1 [ISONIAZID],MIC80,[2],0.06 µg/mL
same,MIC80,[3],0.06 µg/mL
same,MIC80,[4],0.06 µg/mL
same,MIC80,[5],0.06 µg/mL
same,MIC80,[6],0.06 µg/mL
same,MIC80,[7],0.06 µg/mL
same,MIC80,[8],0.06 µg/mL
same,MIC80,[9],0.06 µg/mL
same,MIC80,[10],0.06 µg/mL
same,MIC80,[11],0.06 µg/mL
same,MIC80,[12],0.06 µg/mL
Clc1ccc(-c2csc(-c3ccnc(OCC4CC4)c3)n2)cc1,MIC80,[1],2 µg/mL
CCCc1cc(-c2nc(-c3ccc(Cl)cc3)c(C(N)=O)s2)ccn1,MIC80,[1],> 32 µg/mL
CCCc1cc(-c2nc(-c3ccccn3)cs2)ccn1,MIC80,[1],4 µg/mL
CC(=O)N1CCC(c2nc(-c3ccc(Cl)cc3)cs2)CC1,MIC80,[1],> 32 µg/mL
CCCc1cc(-c2nc(-c3ccc(NC(=O)NCC)cc3)cs2)ccn1,MIC80,[1],1 µg/mL
CCCc1cc(-c2nc(-c3cccc(C(F)(F)F)c3)cs2)ccn1,MIC80,[1],0.5 µg/mL
CCCc1cc(-c2nc(-c3ccc(OCCN4CCOCC4)cc3)cs2)ccn1,Ratio,[15],2
same,solubility,[14],29.8 µM
same,MIC80,[2],1 µg/mL
same,MIC80,[3],2 µg/mL
same,MIC80,[4],1 µg/mL
same,MIC80,[5],2 µg/mL
same,MIC80,[1],1 µg/mL
same,MIC80,[6],1 µg/mL
same,MBC,[16],5.2 µg/mL
same,MIC80,[7],0.5 µg/mL
same,MIC80,[8],2 µg/mL
same,MIC80,[9],1 µg/mL
same,MIC80,[10],1 µg/mL
same,MIC80,[11],1 µg/mL
same,MIC80,[12],1 µg/mL
CCCc1cc(-c2nc(-c3ccc(NS(C)(=O)=O)cc3)cs2)ccn1,fraction unbound,[17],< 0.01
same,solubility,[14],1.3 µM
same,microsomal CLint,[18],28.8 µL/min/mg
same,MIC80,[2],0.13 µg/mL
same,MIC80,[3],0.25 µg/mL
same,MIC80,[4],0.5 µg/mL
same,MIC80,[5],0.5 µg/mL
same,MIC80,[1],0.4 µg/mL
same,MIC80,[6],0.5 µg/mL
same,MIC80,[7],0.13 µg/mL
same,MIC80,[8],0.13 µg/mL
same,MIC80,[9],1 µg/mL
same,MIC80,[10],0.5 µg/mL
same,microsomal CLint,[19],4.3 µL/min/mg
same,MIC80,[11],0.13 µg/mL
same,MIC80,[12],0.25 µg/mL
CCNc1cc(-c2nc(-c3ccc(Cl)cc3)cs2)ccn1,MIC80,[1],8 µg/mL
COCc1cc(-c2nc(-c3ccc(Cl)cc3)cs2)ccn1,MIC80,[1],4 µg/mL
CCCc1cc(-c2nsc(-c3ccnc(CCC)c3)n2)ccn1,MIC80,[1],32 µg/mL
CCCc1cc(-c2nc(-c3ccc(Cl)cc3)c(C(=O)O)s2)ccn1,MIC80,[1],> 32 µg/mL
CCCc1cc(-c2nc(-c3ccccc3C(F)(F)F)cs2)ccn1,MIC80,[1],> 32 µg/mL
CCCc1cc(-c2nc(-c3ccccc3F)cs2)ccn1,MIC80,[1],2 µg/mL
CCc1cc(-c2nc(-c3ccc(Cl)cc3)cs2)ccn1,MIC80,[1],2 µg/mL
CCCc1cc(-c2nc(-c3ccc(Cl)cc3)cs2)ccn1,MIC80,[1],1 µg/mL
same,MBC,[16],2 µg/mL
CCCc1cc(-c2nc(-c3ccc(Cl)cc3)c(C)s2)ccn1,MIC80,[1],4 µg/mL
Clc1ccc(-c2csc(-c3ccnc(N4CCOCC4)c3)n2)cc1,MIC80,[1],> 32 µg/mL
CN1CCC(c2nc(-c3ccc(Cl)cc3)cs2)CC1,MIC80,[1],> 32 µg/mL
CCCc1cc(-c2nc(-c3ccnc(OCC)c3)cs2)ccn1,MIC80,[1],0.1 µg/mL
same,MBC,[16],0.1 µg/mL
CCCc1cc(-c2nc(-c3ccc(C(=O)NS(C)(=O)=O)cc3)cs2)ccn1,MIC80,[1],32 µg/mL
CCc1cc(-c2ncc(-c3ccnc(OC)c3)s2)ccn1,MBC,[16],0.5 µg/mL
CCCc1cc(-c2ncc(-c3ccncc3)s2)ccn1,MIC80,[1],32 µg/mL
CCCc1cc(-c2nc(-c3ccccc3)cs2)ccn1,MIC80,[1],1 µg/mL
CCCc1cc(-c2nc(-c3cccc(F)c3)cs2)ccn1,MIC80,[1],1 µg/mL
CCCc1cc(-c2nc(-c3ccc(OCCN(C)C)cc3)cs2)ccn1,solubility,[14],279 µM
same,MIC80,[1],16 µg/mL
CCCc1cc(-c2nc(-c3ccc(OCC4CC4)cc3)cs2)ccn1,MIC80,[2],0.5 µg/mL
same,MIC80,[3],0.5 µg/mL
same,MIC80,[4],0.5 µg/mL
same,MIC80,[5],0.5 µg/mL
same,MIC80,[1],0.25 µg/mL
same,MIC80,[6],1 µg/mL
same,MIC80,[7],0.25 µg/mL
same,MIC80,[8],0.5 µg/mL
same,MIC80,[9],1 µg/mL
same,MIC80,[10],0.5 µg/mL
same,MIC80,[11],0.25 µg/mL
same,MIC80,[12],0.5 µg/mL
CCCc1cc(-c2ncc(-c3ccnc(OC)c3)s2)ccn1,MIC80,[1],32 µg/mL
CCCc1cc(-c2nc(-c3ccc(OCCOC)cc3)cs2)ccn1,MIC80,[1],1 µg/mL
CCCc1cc(-c2nc(-c3ccc(C(=O)O)cc3)cs2)ccn1,MIC80,[1],16 µg/mL
O=c1cc(-c2nc(-c3ccc(Cl)cc3)cs2)cc[nH]1,MIC80,[1],> 32 µg/mL
Clc1ccc(-c2csc(-c3ccnc(C4CC4)c3)n2)cc1,MIC80,[1],4 µg/mL
